From the Deep4Chem optical property database come the findings set out here.

The first series in a line: solvent given as SMILES. Conditions: in CO.
In turn, `CN(c1ccccc1)c1ccc(/C=C2\C(=O)c3ccccc3S2(=O)=O)cc1` had an emission maximum of 525 nm.

The compound `O=S(=O)(O)c1cccc2cccc(Nc3ccccc3)c12` showed an emission maximum of 490 nm.

`CCOC(=O)CCCCCn1c2ccc(C)cc2c(=O)c2cc3c(cc21)c(=O)c1cc(C)ccc1n3CCCCCC(=O)OCC` yielded an emission maximum of 565 nm.

Compound `CN(C)CCCN1c2ccccc2CCc2ccc(Cl)cc21` returned an emission maximum of 353 nm.

As to `Nc1ccc2c(C(F)(F)F)cc(=O)oc2c1`, the emission maximum was determined as 487 nm.

With `CCOC(=O)/C(C#N)=C\c1ccc2c(c1)c1ccccc1n2-c1ccc(OC)cc1`, the emission maximum is reported as 532 nm.

Take `COc1ccc(/C=C/c2nc3ccccc3s2)cc1`: the emission maximum was 420 nm.

Compound `Nc1ccc2c(c1)C(=O)O/C2=C\c1ccc(Cl)cc1` yielded an emission maximum of 492.13 nm.

On to `Cc1cc(C(F)(F)F)nc2c1ccc1nc(-c3ccc(Cl)cc3)cn12`, for which the emission maximum is reported as 459 nm.

Still in this series, the particulars now being: in CS(C)=O.
Regarding `CN(c1ccccc1)c1ccc(/C=C2\C(=O)c3ccccc3S2(=O)=O)cc1`, the emission maximum turned out to be 552 nm.

`Nc1ccc2c(C(F)(F)F)cc(=O)oc2c1` registered an emission maximum of 487 nm.

For the compound `CCOC(=O)/C(C#N)=C\c1ccc2c(c1)c1ccccc1n2-c1ccc(OC)cc1`, the emission maximum came out at 542 nm.

Staying with this series, now noted: in Cc1ccccc1.
Compound `CN(c1ccccc1)c1ccc(/C=C2\C(=O)c3ccccc3S2(=O)=O)cc1` came in with an emission maximum of 576 nm.

Consider `CCCCCCCCCCCCn1nnc(-c2ccc(C#Cc3ccc(C#Cc4ccc(-c5nnn(CCCCCCCCCCCC)n5)cc4)c4nc5c6ccccc6c6ccccc6c5nc34)cc2)n1`, for which the emission maximum worked out at 488 nm.

For `N#Cc1cc(C#N)cc(-n2c3ccccc3c3cc(-c4ccc5c(c4)c4ccccc4n5-c4cc(C#N)cc(C#N)c4)ccc32)c1`, the emission maximum amounted to 470 nm.

`CCn1c2ccccc2c2cc(C#Cc3cc(C#Cc4ccc5c(c4)c4ccccc4n5CC)ncn3)ccc21`: the emission maximum is given as 411 nm.

The compound `CCn1c2ccccc2c2cc(-c3cc(-c4ccc5c(c4)c4ccccc4n5CC)nc(-c4ccc(OC)cc4)n3)ccc21` returned an emission maximum of 379 nm.

In the case of `c1ccc2c(c1)c1ccccc1n2-c1ccc(-c2cc3ccc(-c4ccc5cc(-c6ccc(-n7c8ccccc8c8ccccc87)cc6)oc5c4)cc3o2)cc1`, the emission maximum was 407 nm.

In turn, `CCOC(=O)/C(C#N)=C\c1ccc2c(c1)c1ccccc1n2-c1ccc(OC)cc1` had an emission maximum of 455 nm.

Compound `CC1(C)c2ccccc2N(c2ccc(-c3nc4cccc5c4n3-c3ccccc3C5(C)C)cc2)c2ccccc21` gave an emission maximum of 450 nm.

Compound `Cc1cc(C(F)(F)F)nc2c1ccc1nc(-c3ccc(Cl)cc3)cn12` registered an emission maximum of 455 nm.

Take `C1=[N+](c2ccccc2)[B-]2(Oc3c1ccc1c4c(ccc31)C=[N+](c1ccccc1)[B-]1(O4)c3ccccc3Oc3ccccc31)c1ccccc1Oc1ccccc12`: the emission maximum is given as 605 nm.

Still in this series, the particulars now being: in ClC(Cl)Cl.
As for `CN(c1ccccc1)c1ccc(/C=C2\C(=O)c3ccccc3S2(=O)=O)cc1`, the emission maximum is 532 nm.

Compound `CC[N+](CC)=c1ccc2c(-c3ccccc3C(=O)O)c3c(=O)oc4c5c6c(cc4c3oc-2c1)CCCN6CCC5` yielded an emission maximum of 664 nm.

Regarding `CCCCCCCCC1(CCCCCCCC)c2cc(-c3ccc(C(=O)OC)cc3)ccc2-c2ccc(-c3ccc(C(=O)OC)cc3)cc21`, the emission maximum came to 388 nm.

As to `CCCCCCCCCCCCOc1cc2c3c(ccc4c5c(OCCCCCCCCCCCC)cc6c7c(ccc(c1c34)c75)C(=O)N(C1CCCCC1)C6=O)C(=O)N(C1CCCCC1)C2=O`, the emission maximum was 597 nm.

Take `CCOC(=O)/C(C#N)=C\c1ccc2c(c1)c1ccccc1n2-c1ccc(OC)cc1`: the emission maximum worked out at 486 nm.

Regarding `COc1ccc(-n2c3c4ccccc4nc(-c4ccc(C#N)cc4)c3c3c2c2c(-c4ccc(C#N)cc4)nc4ccccc4c2n3-c2ccc(OC)cc2)cc1`, the emission maximum turned out to be 513 nm.

Take `Cc1cc(C(F)(F)F)nc2c1ccc1nc(-c3ccc(Cl)cc3)cn12`: the emission maximum was 452 nm.

Still in this series, the particulars now being: in ClCCl.
Compound `CN(c1ccccc1)c1ccc(/C=C2\C(=O)c3ccccc3S2(=O)=O)cc1` returned an emission maximum of 547 nm.

For the compound `CCCCCCCCCCCCn1nnc(-c2ccc(C#Cc3ccc(C#Cc4ccc(-c5nnn(CCCCCCCCCCCC)n5)cc4)c4nc5c6ccccc6c6ccccc6c5nc34)cc2)n1`, the emission maximum amounted to 502 nm.

On to `[O-][n+]1c(/C=C/c2ccccc2)nc(N2CCOCC2)c2c1CCCC2`, for which the emission maximum amounted to 535 nm.

`Cc1cc(O)c(C(=O)/C=C/c2cccc(O)c2)c(=O)o1` gave an emission maximum of 491 nm.

For the compound `O=Cc1ccc2c(c1)c1ccccc1n2-c1ccc(-c2ccc(-n3c4ccccc4c4cc(C=O)ccc43)cc2)cc1`, the emission maximum turned out to be 405 nm.

As to `CCn1c2ccccc2c2cc(C#Cc3cc(C#Cc4ccc5c(c4)c4ccccc4n5CC)ncn3)ccc21`, the emission maximum is reported as 484 nm.

With `c1cc(-c2ccc(-n3c4ccccc4c4ccccc43)cc2)c2nsnc2c1`, the emission maximum was 537 nm.

With `CCn1c2ccccc2c2cc(-c3cc(-c4ccc5c(c4)c4ccccc4n5CC)nc(-c4ccc(OC)cc4)n3)ccc21`, the emission maximum is listed as 404 nm.

Turning to `c1csc(-c2ccc(-c3ccc(-c4cccs4)s3)s2)c1`, the emission maximum was found to be 480 nm.

`CCCCCCCCCCCCN1C(=O)c2c(c3ccc4cc(-c5ccc(C(F)(F)F)cc5)c(OC)cc4c3c3c2ccc2cc(-c4ccc(C(F)(F)F)cc4)c(OC)cc23)C1=O` registered an emission maximum of 522 nm.

Turning to `CC(C)(C)NC(=O)c1cccc2ccc3c4ccc(F)cc4c4cc(F)ccc4c3c12`, the emission maximum worked out at 388 nm.

`c1ccc2c(-c3cc4c(ccc5sccc54)s3)cccc2c1`: the emission maximum is recorded as 405 nm.

`COc1ccc(-c2cn3cc(C)c[n+]3[n-]2)cc1`: the emission maximum amounted to 421 nm.

Compound `COc1ccc(C2=[N+]3C(=Nc4c(-c5ccc6ccccc6c5)c(Br)c(-c5ccc(OC)cc5)n4[B-]3(F)F)C(c3ccc4ccccc4c3)=C2Br)cc1` registered an emission maximum of 734 nm.

In turn, `CC[N+](CC)=c1ccc2c(-c3ccccc3C(=O)O)c3oc4cc(N)ccc4c3oc-2c1` had an emission maximum of 617 nm.

For `Cc1cc(C(F)(F)F)nc2c1ccc1nc(-c3ccc(Cl)cc3)cn12`, the emission maximum is given as 455 nm.

On to `C[Si]1(C)O[Si](C)(C)c2cc3nc4ccc([N+](=O)[O-])cc4c(-c4ccccc4)c3cc2[Si](C)(C)O1`, for which the emission maximum is 520 nm.

As for `O=C(c1ccc(N(c2ccccc2)c2ccccc2)cc1)[C@H]1[C@H](c2ccc(F)cc2)C[C@](O)(c2ccccn2)C[C@]1(O)c1ccccn1`, the emission maximum amounted to 518 nm.

`CCCc1ccc(C#Cc2cc(C#Cc3ccc(N(C)C)cc3)c3ccc4c(C#Cc5ccc(N(C)C)cc5)cc(C#Cc5ccc(CCC)cc5)c5ccc2c3c54)cc1`: the emission maximum is recorded as 591 nm.

As for `C1=[N+](c2ccccc2)[B-]2(Oc3c1ccc1c4c(ccc31)C=[N+](c1ccccc1)[B-]1(O4)c3ccccc3Oc3ccccc31)c1ccccc1Oc1ccccc12`, the emission maximum is given as 599 nm.

The same series, now with this note: in O.
With `[NH-]c1cc(N)cc(-c2nc3ccccc3s2)c1`, the emission maximum was 484 nm.

Take `CC/[NH+]=c1\cc2oc3cc(NCCC(=O)NC(CCC(=O)OC)C(=O)OC)c4ccccc4c3nc-2cc1C` (configuration not stated): the emission maximum was 652 nm.

On to `CC[N+](CC)=c1ccc2c(-c3ccccc3C(=O)O)c3c(=O)oc4c5c6c(cc4c3oc-2c1)CCCN6CCC5`, for which the emission maximum is 684 nm.

Regarding `CN(C)CCCN1c2ccccc2CCc2ccc(Cl)cc21`, the emission maximum was found to be 400 nm.

Compound `CCN1CCCc2cc3c(cc21)Oc1cc2c(cc1=N3)C(CS(=O)(=O)[O-])CC(C)(C)[N+]=2CCCC(=O)[O-]` (configuration not stated) showed an emission maximum of 690 nm.

`CC[N+](CC)=c1ccc2c(-c3ccccc3C(=O)O)c3oc4cc(N)ccc4c3oc-2c1` gave an emission maximum of 634 nm.

Still in this series, the particulars now being: in O=P(c1ccccc1)(c1ccccc1)c1ccccc1Oc1ccccc1P(=O)(c1ccccc1)c1ccccc1.
As for `N#Cc1cc(C#N)cc(-n2c3ccccc3c3cc(-c4ccc5c(c4)c4ccccc4n5-c4cc(C#N)cc(C#N)c4)ccc32)c1`, the emission maximum was found to be 470 nm.

In turn, `CC1(C)c2ccccc2N(c2ccc(-c3nc4cccc5c4n3-c3ccccc3C5(C)C)cc2)c2ccccc21` returned an emission maximum of 449 nm.

The series is the same for the next values; noted with them: in OCC(O)CO.
For the compound `O=S(=O)(O)c1cccc2cccc(Nc3ccccc3)c12`, the emission maximum is recorded as 501 nm.

Still in this series, the particulars now being: in OCCO.
In turn, `O=S(=O)(O)c1cccc2cccc(Nc3ccccc3)c12` displayed an emission maximum of 495 nm.

The series is the same for the next values; noted with them: in c1ccc2c(c1)c1ccccc1n2-c1ccc(-c2ccc(-n3c4ccccc4c4ccccc43)cc2)cc1.
`c1ccc2c(c1)c1ccccc1n2-c1ccc(-c2cc3ccc(-c4ccc5cc(-c6ccc(-n7c8ccccc8c8ccccc87)cc6)oc5c4)cc3o2)cc1` had an emission maximum of 419 nm.

The series is the same for the next values; noted with them: in c1ccccc1.
`Cc1cc(C(F)(F)F)nc2c1ccc1nc(-c3ccc(Cl)cc3)cn12` yielded an emission maximum of 455 nm.

Consider `O=C(c1ccc(N(c2ccccc2)c2ccccc2)cc1)[C@H]1[C@H](c2ccc(F)cc2)C[C@](O)(c2ccccn2)C[C@]1(O)c1ccccn1`, for which the emission maximum was determined as 485 nm.
